Experimental data: paper PMC9592989, “Determination of (-)-epigallocatechin-3-gallate octaacetate and its metabolites in plasma of rats for pharmacokinetic study by ultra-performance-liquid-chromatography coupled to quadrupole-time-of-flight-mass-spectrometry” (Frontiers in Pharmacology, 2022)
Read-outs that look alike come from different tables or passages of the source.

How the values were obtained:
[1] = Pharmacokinetic study in SD rats after intragastric administration of pro-EGCG, plasma by UPLC-Qtof-MS; type: in vivo, Sprague Dawley (SD) rats
Experimental: Fourteen to 16-weeks old female Sprague Dawley (SD) rats at reproductive age and of approximately 250 g were grouped in different cages in an air-conditioned room (22 ± 2°C) with a 12-h controlled lighting cycle. The SD rats were fed with standard chow and given free access to water. They were acclimatized for 1 week before the experiment. The study was approved by the Animal Experimentation Ethics Committee of the Chinese University of Hong Kong and was performed according to institutional guidelines. For validation studies, the rats were fasted overnight and then anesthetized by inhaling isoflurane (Baxter, IL, United States) for 15 min. Blank blood samples, approximately 10 mL, were withdrawn by cardiac puncture after experiments and before sacrifice.
Venous blood drawn from the SD rats was stored in an EDTA tube in an […] ice bath for not more than 10 min and centrifuged at 1780 × g and […] for 10 min. Plasma was aliquoted in 50 μL, mixed with 6 µL formic acid, and either immediately processed or stored at -80°C.
The extraction procedure was modified from our previous study ([Chu et al., 2014]). A plasma aliquot was spiked with 2.5 µL of 100 μg/mL pro-EGCG internal standard and mixed with 300 µL of isopropanol and 3 µL of formic acid. After vortexing for 2 min and sonicating for 2 min, 1 mL of MTBE and 150 µL magnesium chloride 0.043% solution were added. The mixture was again vortexed for 2 min and sonicated for 2 min. After settling, the mixture was centrifuged at 2,624 × g and 4°C for 10 min. The supernatant was pipetted into a glass tube by a glass Pasteur pipette and avoided touching the protein layer. The remaining aqueous layer was re-extracted by isopropanol and MTBE as described above. The supernatant was mixed with the previous extract and purged to dryness by nitrogen. The dried residues were dissolved in 100 µL methanol, sonicated for 30 s, vortexed for 2 min, and centrifuged at 3,634 × g at 4°C for 15 min. The supernatant was transferred to an HPLC vial for LCMS analysis. Methanol can completely dissolve pro-EGCG and precipitate protein matrix from the residues.
Plasma extract was analyzed by Agilent 6,540 Liquid chromatography-electrospray ionization quadrupole-TOF Mass Spectrometer. The extract, 8 μL, was separated by Waters Cortex UPLC C18 1.6 µm × 2.1 × 150 mm column (Waters, Milford, MA). Mobile phase A was 0.1 mM ammonia solution/acetonitrile/methanol/formic acid [80:15:5:0.2 (v/v/v/v)] and mobile phase B acetonitrile/methanol/0.1 mM ammonia solution/formic acid [92.5:5:2.5:0.2 (v/v/v/v)]. The column temperature was 40°C and the flow rate was 0.4 mL/min. The binary elusion program: 20% B, 0–2 min; 20%–60% B, 2–10 min; 60%–100% B, 10–11 min; 100% B, 11–18 min; 100%–20% B, 18–19 min; 20% B, 19–24 min. Positive electrospray ionization was used with capillary voltage (VCap) at 4500V, nozzle voltage at 1000 V, the gas temperature at 300°C, drying gas at 8 L/min, nebulizer pressure at 40 psi, sheath gas temperature at 300°C, and sheath gas flow at 11 L/min. The acquisition range was 100–1,000 m/z. The exact mass method was used for quantification at the range of 812.2043 ± 0.06 m/z for pro-EGCG ammonium adduct [M + NH4]^+ and 803.2039 ± 0.06 m/z for internal standard pro-EGCG-1–13C8 hydrogen adduct [M + H]^+. The mass was locked by continuous infusion of calibration standards with lock mass calibrated at 922.0 m/z.
For analysis of the metabolites, the predicted masses of pro-EGCG metabolites as calculated from de-acetylation, glucuronidation, sulphation, and methylation were scanned from the chromatogram of the first-hour plasma samples after intragastric administration of pro-EGCG. For a particular metabolite, the predicted target molecular mass of the metabolite was submitted for MS/MS analysis within ± 1 min around the retention time of the peak. The chromatography and mass spectrum conditions were the same as above. The collision energy was set for […] and the daughter ion scan ranged from 100–1,000 Da. […]

[2] = Stability of pro-EGCG in processed plasma extracts on storage; type: physicochemical; details: 5.0 μg/mL pro-EGCG of processed samples stored at 4°C for 7 days and 4 weeks at -20°C
Experimental: Three processed plasma samples extracted at 5.0 μg/mL were stored at 4°C for a week. They were tested at t = 0 and 7 days. This duration was selected to ensure the test period is sufficient to cover a batch of samples for analysis in the auto-sampler ([Brodie and Hill, 2002]; [Department of Medical Sciences Ministry of Public Health, 2022]). […] This test period covered common the maximum storage period pending for batches of analysis.

[3] = set-up: method as in Lambert et al., 2006; details: intragastric administration, CF-1 mice; ref Lambert et al., 2006; cited from earlier work
[4] = Stability of pro-EGCG in rat plasma (room temperature; esterase inhibitors; formic acid); type: in vitro ADME; details: for stability of pro-EGCG in plasma at room temperature: 50 μg/mL pro-EGCG spiked in rat plasma, 0-60 min
Experimental: The stability of pro-EGCG in plasma at room temperature was assessed by spiking 50.0 μg/mL pro-EGCG into three sets of 50 µL plasma samples. Each plasma sample was spiked with 5.0 μg/mL pro-EGCG internal standard at time points 0, 3, 5, 10, 20, 30, and 60 min before snap-frozen by liquid nitrogen. The samples were processed as described above and analyzed by UPLC‐Qtof-MS.
We also evaluated the stabilizing effect of different esterase inhibitors. The inhibitors, 4-(2-aminoethyl-)benzenesulponylfluoride HCL (penfabloc), bis-nitophenyl phosphate (BNPP), N-α-tosyl-L-lysine chloromethylketone HCL (TLCK), and dichlorvos, at plasma level of 30 mM; a mixture of sodium fluoride–potassium oxalate (NaF-KO) at plasma level of 10.0 mg/mL and 8.0 mg/mL; and 6 µL formic acid in 50 µL fresh rat plasma sample were used. Subsequently, pro-EGCG was spiked into the blank rat plasma at 5.0 μg/mL in an ice bath for 10 min. An internal standard, 5.0 μg/mL, was added to the plasma samples and snap-frozen by liquid nitrogen at the 10th minute. Three sets of samples were tested. The samples were processed as above and analyzed by UPLC‐Qtof-MS.
The stability of pro-EGCG in plasma with formic acid was assessed by mixing 6 µL of formic acid with 5.0 μg/mL pro-EGCG in 50 µL plasma and stored in an ice bath. Each three plasma samples were spiked with 5.0 μg/mL pro-EGCG internal standard and snap-frozen by liquid nitrogen at time points 0, 10, 15, 20, 30, 45, and 60 min. The samples were analyzed as described. Stability (%)=calculated concentration of pro−EGCG under different treatment /actual spiked concentration×100%

induced skin tumors = test system: induced skin tumors; set-up: method as in Chiou et al., 2013; details: mice with induced skin tumors; ref Chiou et al., 2013; cited from earlier work
[5] = test system: human lung cancer H460 cells; set-up: method as in Heyza et al., 2018; details: compared with EGCG treatment, ref Heyza et al., 2018; cited from earlier work
[6] = test system: proteasome activity of breast cancer cells, MDA-MB231; set-up: method as in Landis-Piwowar et al., 2007; details: animal models, relative to EGCG, ref Landis-Piwowar et al., 2007; cited from earlier work
induced prostate cancer = test system: induced prostate cancer; set-up: method as in Lee et al., 2008; details: nude mice with induced prostate cancer; relative to EGCG; ref Lee et al., 2008; cited from earlier work
[7] = test system: plasma vascular endothelial growth factor (VEGF); set-up: method as in Wang et al., 2013; details: mouse model with induced endometriotic lesions; ref Wang et al., 2013; cited from earlier work
[8] = female, Sprague-Dawley, rat, plasma, po, 50 mg/kg, proposed metabolite in rat plasma after intragastric 50 mg/kg pro-EGCG, no standards, not confirmed, read-out: Tmax of pro-EGCG metabolite
[9] = female, Sprague-Dawley, rat, po, SD rats (n = 3), plasma, within 24 h after intragastric 50 mg/kg pro-EGCG, Mean ± SE

## CC(=O)Oc1cc([C@H]2Oc3cc(O)cc(O)c3C[C@H]2OC(=O)c2cc(O)c(O)c(O)c2)cc(O)c1OC(C)=O [EGCG-2Ac, (-)-epigallocatechin-gallate (EGCG) diacetates]
[1]; [8]
  Tmax: ~1 h

## CC(=O)Oc1cc(OC(C)=O)c2c(c1)O[C@H](c1cc(OC(C)=O)c(OC(C)=O)c(OC(C)=O)c1)[C@H](OC(=O)c1cc(OC(C)=O)c(OC(C)=O)c(OC(C)=O)c1)C2 [pro-EGCG, (-)-Epigallocatechin-gallate octaacetate]
[1]; female, Sprague-Dawley, oral, 50 mg/kg, non-compartmental analysis, rat plasma (n = 3) over 24 h
  Cmax: 67 ± 0.04 ng/mL
[1]; female, Sprague-Dawley, rat, plasma, po, 50 mg/kg, SD rats (n = 3), plasma, within 24 h after intragastric 50 mg/kg pro-EGCG, Mean ± SE, read-out: Tmax
  Tmax: 1.33 ± 0.33 h
[1]; female, Sprague-Dawley, rat, plasma, po, 50 mg/kg, oral administration, SD rats, 50 mg/kg pro-EGCG, read-out: time-of-maximum-concentration (Tmax)
  Tmax: 1.33 h
[1]; female, Sprague-Dawley, rat, plasma, oral administration, SD rats, 50 mg/kg pro-EGCG, read-out: area-under-curve (AUC)
  AUC: 200 ± 50 ng·h/mL
[1]; [9]
  Cmax: 67 ± 40 ng/mL
  MRT: 12.9 ± 6.4 h
[1]; female, Sprague-Dawley, rat, po, SD rats (n = 3), plasma, within 24 h after intragastric 50 mg/kg pro-EGCG, Mean ± SE, read-out: Lambda Z (converted)
  k el: 5.56e-05 s⁻¹
[1]; oral administration, SD rats, 50 mg/kg pro-EGCG
  elimination-rate: 0.20 ± 0.11 h⁻¹
[2]
  Pro-EGCG remained: above 95%
[3]
  bioavailability of EGCG compared with EGCG administered at equimolar doses: higher
[4]
  stability of pro-EGCG in plasma at room temperature: rapidly degraded
[4]; listed as Pro-EGCG
  stability of pro-EGCG in plasma at room temperature: unstable
[4]; formic acid treated plasma (6 µL in 50 µL), 5.0 μg/mL, 10 min in an ice bath, Mean ± SD, n = 3
  pro-EGCG remaining: 103 ± 3.6%
[4]; other esterase inhibitors treated plasma (TLCK, BNPP, dichlorvos, pefabloc 30 mM; NaF-KO), 5.0 μg/mL, 10 min in an ice bath
  pro-EGCG left: less than 22%
Induced skin tumors
  average number of tumors per mouse: three folds lower
  tumor incidences: three folds lower
[5]
  half-maximal inhibitory concentration (IC50) of clonogenicity: slightly lower
[6]
  potency in inhibiting proteasome activity compared to the equivalent amount of EGCG: more than two-fold
Induced prostate cancer
  tumor volume smaller after pro-EGCG treatment than EGCG treatment: 40.1%
[7]
  plasma VEGF concentration relative to the concentration treated by EGCG: two-thirds

## CC(=O)Oc1cc([C@H]2Oc3cc(O)cc(O)c3C[C@H]2OC(=O)c2cc(O)c(O)c(O)c2)cc(OC(C)=O)c1OC(C)=O [EGCG-3Ac, EGCG triacetates]
[1]; [8]
  Tmax: ~5 h
[1]; rat plasma profile after intragastric 50 mg/kg pro-EGCG, peak ratio to internal standard
  degradation of EGCG-3Ac (production rate of EGCG-2Ac): about 1.25 × 10^−5 EGCG-3Ac/IS/hr
